Source: ChEMBL document CHEMBL1938321, “Cu-mediated N-arylation of 1,2,3-triazin-4-ones: synthesis of fused triazinone derivatives as potential inhibitors of chorismate mutase” (Bioorg Med Chem Lett, 2012)

What was measured:
[1] = tested on: Mycobacterium tuberculosis H37Rv; experiment: Inhibition of Mycobacterium tuberculosis H37Rv chorismate mutase expressed in Escherichia coli assessed as inhibition of prephenate formation at 50 uM after 1 to 5 mins by spectrophotometry
[2] = (§1) Inhibition of Mycobacterium tuberculosis H37Rv chorismate mutase expressed in Escherichia coli assessed as inhibition of prephenate formation after 1 to 5 mins by spectrophotometry
[3] = tested on: Mycobacterium tuberculosis H37Rv; experiment: as §1

Compound	inhibition [1]	IC50 [2]	inhibition [3]
O=c1c2c3c(sc2nnn1-c1ccc(F)cc1)CCCC3	25%		
O=c1c2ccccc2nnn1-c1ccccc1	12%		
CCCc1nn(C)c2c(=O)n(-c3cccc(Cl)c3)nnc12	30%		
O=c1c2c3c(sc2nnn1-c1ccc2ccccc2c1)CCCC3	37%		
O=c1c2ccccc2nnn1-c1ccc2ccccc2c1	40%		
CCCc1nn(C)c2c(=O)n(-c3ccc4ccccc4c3)nnc12	61%	15.1 µM	Dose-dependent effect
COc1cc(CCNc2c([N+](=O)[O-])cc(C(=O)O)cc2S(N)(=O)=O)cc(OC)c1		< 10 µM	
CCCc1nn(C)c2c(=O)n(-c3ccc(F)cc3)nnc12	24%		
CCCc1nn(C)c2c(=O)n(-c3ccccc3)nnc12	10%		
